Literature values in US20250268832A1, “Pretomanid Compositions” (The Global Alliance for TB Drug Development, Inc., priority 2019, published 2025).

Assays:
[1] = tested on: drug-resistant clinical isolates; details: background statement
[2] = poorly soluble
[3] = tested on: Mycobacterium tuberculosis; details: background statement

For `O=[N+]([O-])c1cn2c(n1)OC[C@@H](OCc1ccc(OC(F)(F)F)cc1)C2` [Pretomanid, (65)-2-nitro-6-{[4-(trifluoromethoxy)benzyl]oxy}-6,7,-dihydro-5H-imidazol[2.1b][1.3]oxazine], the “activity in vitro against drug-resistant clinical isolates” value [1] is given as “activity in vitro against all tested drug-resistant clinical isolates”, the “Biopharmaceutics Classification System (BCS) class” value [2] is given as “Class II/IV” and the activity in mice [3] is given as “potent bactericidal and sterilizing agent”.
